“Also recorded” adds a separate entry of the source. Where two headings read alike, the source gives them in different places.

This is an account of results in paper PMC7072973, “Differential Signaling Profiles of MC4R Mutations with Three Different Ligands” (International Journal of Molecular Sciences, 2020).

In experiment [1] the target is T1, MC4R WT (Homo sapiens, UniProt P32245). The settings on record: HEK293, cAMP, 40 min, IBMX, mean ± SEM, 3 to 7 experiments in triplicates.
Target sequence in this assay (P32245 whole entry): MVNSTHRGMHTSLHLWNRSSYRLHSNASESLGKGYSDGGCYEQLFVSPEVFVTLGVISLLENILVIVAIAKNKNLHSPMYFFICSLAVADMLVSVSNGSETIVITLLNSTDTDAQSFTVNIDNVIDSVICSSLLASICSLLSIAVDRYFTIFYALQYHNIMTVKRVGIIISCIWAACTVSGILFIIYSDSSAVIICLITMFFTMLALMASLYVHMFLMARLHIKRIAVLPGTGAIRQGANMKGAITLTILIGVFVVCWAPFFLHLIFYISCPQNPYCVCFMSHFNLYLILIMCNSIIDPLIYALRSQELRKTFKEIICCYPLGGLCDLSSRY
Method: (§5) GS and Gi coupling to the MC4R were determined using the AlphaScreen™ assay (Perkin Elmer Life Science, Boston, MA, USA) performed according to the manufacturer’s protocol and described elsewhere [68]. […] Determination of Gi coupling was investigated by pretreatment with 50 µg/mL PTX 18 h before stimulation. All stimulations were performed at 37 °C and 5% CO2. Incubation was stopped by removing the compounds and lysing the cells in lysis buffer containing IBMX for 1.5–2 h at 4 °C on a shaking platform.
(§6) The determination of cAMP using the AlphaScreen™ assay is a competitive immune assay based on antibody-coupled acceptor beads that bind cAMP and streptavidin-coupled donor beads that bind to a biotinylated cAMP probe. Excitement of the donor bead leads to the conversion of ambient oxygen to a singlet state. […] Absolute amounts of cAMP are determined by the simultaneous measurement of a cAMP standard. The plate reader (Mithras 940 LB)) was used for the read out, at 565 nm.
(§7) Concentration–response curves of each experiment were analyzed by fitting a non-linear regression model for sigmoidal response in Graph Pad Prism 6 (GraphPad Software Inc., La Jolla, CA, USA) to determine potency (EC50 values). […] Emax is the maximal response (efficiency) of the mutation, which was determined from the concentration–response curves. […]
Experiment [2] relates to MC4R WT. The experiment can be described thus: GS signaling (cAMP) with AgRP co-stimulation, MC4R WT. It is filed as cell-based, human.
Method: (§8) Therefore, in addition to cAMP measurements to assess GS activation in the absence and presence of 100 nM AgRP, we measured Gi/o activation via determination of second messenger (cAMP) modulation by adenylyl cyclase (AC) in the absence or presence of pertussis toxin (PTX) pretreatment.
as §5, §6
The target in experiment [3] is T2, MC4R H158R (Homo sapiens, UniProt P32245, H158R).
Target sequence in this assay (P32245 whole entry H158R): as the sequence (P32245 whole entry) above, with H158R counted along it
Method: (§9) Activation of PLC, RhoA and ERK1/2 phosphorylation was determined using luciferase-based reporter gene assays that utilize responsive elements in the promotor region of the gene encoding a firefly luciferase. For PLC activation, the NFAT responsive element (NFAT-luc, pGL4.33) was co-transfected with the receptor mutations. Similarly, co-transfections with SRF responsive element (SRF-luc, pGL4.33, Promega, Mannheim, Germany) for RhoA activation and Serum response element (SRE-luc, pGL3.4, Promega, Mannheim, Germany) for ERK1/2 phosphorylation were performed. […]
(§10) Measurement of luciferase activity provided information about the activation of the respective second messenger by transferring 10 µL lysate into a white opaque 96-well plate. Injection of 40 µL firefly luciferase substrate (Promega, Mannheim, Germany) and measurement of luminescence was performed with a plate reader (Mithras LB 940).
as §7
Experiment [4] concerns the target T3, MC4R V103I (Homo sapiens, UniProt P32245, V103I).
Target sequence in this assay (P32245 whole entry V103I): as the sequence (P32245 whole entry) above, with V103I counted along it
Method: as §5
The determination of cAMP using the AlphaScreen™ assay is a competitive immune assay based on antibody-coupled acceptor beads that bind cAMP and streptavidin-coupled donor beads that bind to a biotinylated cAMP probe. Excitement of the donor bead leads to the conversion of ambient oxygen to a singlet state. In close proximity of donor and acceptor beads through binding the biotinylated probe, the acceptor reacts with the singlet molecule and emits light. Absolute amounts of cAMP are determined by the simultaneous measurement of a cAMP standard. The plate reader (Mithras 940 LB)) was used for the read out, at 565 nm.
Concentration–response curves of each experiment were analyzed by fitting a non-linear regression model for sigmoidal response in Graph Pad Prism 6 (GraphPad Software Inc., La Jolla, CA, USA) to determine potency (EC50 values). For mutations that had EC50 values outside of concentration tested, it was set to the appropriate highest concentration tested. Signaling bias analysis was performed as described by Kenakin (2017) [69] using the formula (4) Δlog(Emax/EC50) = log(Emaxtest/EC50 test)−log(Emaxref/EC50 ref) with test referring to the tested receptor mutation and ref being reference (MC4R WT). Emax is the maximal response (efficiency) of the mutation, which was determined from the concentration–response curves. Where no Emax could be determined from incomplete curves (e.g., in case of AgRP co-stimulation), the response of the maximal concentration was substituted as has been described by Winpenny et al. (2016) [70].
The target in experiment [5] is T3, MC4R V103I. This is another data set of the same source.
Target sequence in this assay (P32245 whole entry V103I): as the sequence (P32245 whole entry) above, with V103I counted along it
Method: as §9, §10, §7
Experiment [6] addresses T1, MC4R WT. The settings on record: HEK293, SRE-luc, 6 h, mean ± SEM, 3 to 7 experiments in triplicates.
Target sequence in this assay (P32245 whole entry): as the sequence (P32245 whole entry) above
Method: as §9, §10, §7
The target in experiment [7] is T2, MC4R H158R. This is another data set of the same source.
Target sequence in this assay (P32245 whole entry H158R): as the sequence (P32245 whole entry) above, with H158R counted along it
Method: (§11) Therefore, in addition to cAMP measurements to assess GS activation in the absence and presence of 100 nM AgRP, we measured Gi/o activation via determination of second messenger (cAMP) modulation by adenylyl cyclase (AC) in the absence or presence of pertussis toxin (PTX) pretreatment. In the presence of PTX, which locks the Gαi/o subunit in its GDP-bound inactivated state, the G protein is no longer able to inhibit the AC to form cAMP [48]. Although this is an indirect way of measuring the contributions from Gi/o signaling to the total amount of intracellular cAMP, we will refer to these measurements as Gi/o coupling in order to simplify the results part.
(§12) GS and Gi coupling to the MC4R were determined using the AlphaScreen™ assay (Perkin Elmer Life Science, Boston, MA, USA) performed according to the manufacturer’s protocol and described elsewhere [68]. […] Determination of Gi coupling was investigated by pretreatment with 50 µg/mL PTX 18 h before stimulation. […]
(§13) The determination of cAMP using the AlphaScreen™ assay is a competitive immune assay based on antibody-coupled acceptor beads that bind cAMP and streptavidin-coupled donor beads that bind to a biotinylated cAMP probe. […] Absolute amounts of cAMP are determined by the simultaneous measurement of a cAMP standard. The plate reader (Mithras 940 LB)) was used for the read out, at 565 nm. […]
Experiment [8] concerns the target T1, MC4R WT. The settings on record: HEK293, NFAT-luc, 6 h, mean ± SEM, 3 to 7 experiments in triplicates.
Target sequence in this assay (P32245 whole entry): as the sequence (P32245 whole entry) above
Method: as §9, §10, §7
For experiment [9], the target named is T2, MC4R H158R. The source holds these as a separate data set.
Target sequence in this assay (P32245 whole entry H158R): as the sequence (P32245 whole entry) above, with H158R counted along it
Method: as §9, §10, §7
For experiment [10], the target named is T3, MC4R V103I. This is another data set of the same source.
Target sequence in this assay (P32245 whole entry V103I): as the sequence (P32245 whole entry) above, with V103I counted along it
Method: as §9, §10, §7
The target of experiment [11] is T1, MC4R WT. The settings on record: HEK293, SRF-luc, 6 h, mean ± SEM, 3 to 7 experiments in triplicates.
Target sequence in this assay (P32245 whole entry): as the sequence (P32245 whole entry) above
Method: as §9, §10, §7
Experiment [12] concerns the target T1, MC4R WT. Put plainly: β-arrestin2 recruitment (NanoBRET), MC4R WT. It counts as cell-based. Set-up: expressed in transfected cells; host or cells: HEK293. The settings on record: HEK293, β-arrestin2, 5 min, mean ± SEM, 3 to 7 experiments in triplicates. The protocol:
(§1) A total of 16–20 h after transfection in 6-well plates, cells were detached, and cell number was adjusted to 2.2 × 10^5 cells/mL in Opti-MEM without phenol red supplemented with 4% FBS. Cells were divided into two pools, adding either the acceptor NanoBRET™ Ligand 618 (1 µL/mL cells of 0.1 mM solution) or the same amount of DMSO as background control. After reseeding 90 µL cell suspension/well into a white 96-well plates, incubation was continued for 4–6 h.
(§2) For measurements, 25 µL of NanoBRET™ substrate was injected using a plate reader (Mithras LB 940). Donor and acceptor emission were measured at 460 nm and 610 nm, respectively, and the BRET ratio was calculated by dividing acceptor emission by donor emission:(1) BRET ratio =emissionacceptor/emissiondonor
(§3) The ratio was corrected for background bleed through by subtracting of the background ratio (no acceptor DMSO control) and conversion to milliBRET units (mBU):(2) corrected BRET ratio [mBU]=(BRET ratiosample−BRET rationo acceptor control)×1000
(§4) To calculate the difference between stimulated and basal interaction, the NET BRET was acquired using the formula:(3) NET BRET = corrected BRET ratiostim− corrected BRET ratiobasal
In general terms: Activated receptors often draw arrestin, which recruitment assays turn into a signal.
Target sequence in this assay (P32245 whole entry): as above
Target sequence in this assay (P29067 whole entry partner): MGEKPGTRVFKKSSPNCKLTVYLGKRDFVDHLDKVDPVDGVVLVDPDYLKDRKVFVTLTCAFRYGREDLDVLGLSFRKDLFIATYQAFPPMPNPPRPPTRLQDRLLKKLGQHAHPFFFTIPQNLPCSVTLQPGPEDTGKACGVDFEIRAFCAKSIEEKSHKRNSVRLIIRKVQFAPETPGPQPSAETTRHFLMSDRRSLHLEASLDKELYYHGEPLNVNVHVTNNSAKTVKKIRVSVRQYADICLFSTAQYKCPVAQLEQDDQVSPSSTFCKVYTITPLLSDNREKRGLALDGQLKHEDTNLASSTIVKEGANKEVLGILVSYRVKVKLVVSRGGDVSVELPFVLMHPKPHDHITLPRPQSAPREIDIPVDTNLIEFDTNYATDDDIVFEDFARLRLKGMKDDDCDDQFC

Experiment [13] addresses T2, MC4R H158R. The source holds these as a separate data set.
Target sequence in this assay (P32245 whole entry H158R): as the sequence (P32245 whole entry) above, with H158R counted along it
Method: as §5, §6, §7
The target of experiment [14] is T3, MC4R V103I. The source holds these as a separate data set.
Target sequence in this assay (P32245 whole entry V103I): as the sequence (P32245 whole entry) above, with V103I counted along it
Method: as §11, §12, §13
In experiment [15] the target is T1, MC4R WT. The settings on record: HEK293, PTX-sensitive cAMP, mean ± SEM, 3 to 7 experiments in triplicates.
Target sequence in this assay (P32245 whole entry): as the sequence (P32245 whole entry) above
Method: as §11, §12, §13
Experiment [16] has as its target T2, MC4R H158R. The source holds these as a separate data set.
Target sequence in this assay (P32245 whole entry H158R): as the sequence (P32245 whole entry) above, with H158R counted along it
Method: as §9, §10, §7
Experiment [17] has as its target T2, MC4R H158R. It is filed as cell-based. Set-up: expressed in transfected cells; host or cells: HEK293. The protocol: as §1, §2, §3, §4
Target sequence in this assay (P32245 whole entry H158R): as the sequence (P32245 whole entry) above, with H158R counted along it
Target sequence in this assay (P29067 whole entry partner): as the sequence (P29067 whole entry partner) above
Experiment [18] deals with T3, MC4R V103I. It is filed as cell-based. Further details: expressed in transfected cells; host or cells: HEK293. The settings on record: HEK293, β-arrestin2, 5 min, mean ± SEM, 3 to 7 experiments in triplicates. Here is the method: as §1, §2, §3, §4
Target sequence in this assay (P32245 whole entry V103I): as the sequence (P32245 whole entry) above, with V103I counted along it
Target sequence in this assay (P29067 whole entry partner): as the sequence (P29067 whole entry partner) above
Experiment [19] addresses T3, MC4R V103I. The source holds these as a separate data set.
Target sequence in this assay (P32245 whole entry V103I): as the sequence (P32245 whole entry) above, with V103I counted along it
Method: as §9, §10, §7
In experiment [20] the test system is MC4R H158R. The settings on record: 100 nM AgRP.
Experiment [21] concerns all tested MC4R mutations. Put plainly: GS signaling (cAMP) with AgRP, all tested MC4R mutations. The settings on record: all tested MC4R mutations and ligands; Figure S1.
Method: as §8, §5, §6
Experiment [22] relates to MC4R V103I. The settings on record: synthetic agonist MTII; cited from earlier work.
The subject of experiment [23] is MC4R V103I. The settings on record: agonist α-MSH, 100 nM AgRP.
For experiment [24], the system named is MC4R. The settings on record: cited from earlier work. An excerpt:
The MC4R signals mainly via activation of the stimulating G protein GS, which leads to an increase in intracellular cyclic adenosine-monophosphate (cAMP). In recent years, more and more studies provided evidence that the MC4R is able to couple to a variety of signaling pathways, such as extracellular regulated kinase (ERK) activation, and to other G proteins, such as Gi/o, Gq/11 and G12/13 [10, 11, 12, 13]. These pathways might also be involved in the anorexigenic effect of the activated MC4R [14].

Where [25] appears, read: HEK293, NFAT-luc, 6 h, mean ± SEM, 3 to 7 experiments in triplicates.
Where [26] appears, read: HEK293, cAMP, 40 min, IBMX, mean ± SEM, 3 to 7 experiments in triplicates.
The mark [27] stands for this setting: HEK293, PTX-sensitive cAMP, mean ± SEM, 3 to 7 experiments in triplicates.
The mark [28] stands for this setting: HEK293, SRF-luc, 6 h, mean ± SEM, 3 to 7 experiments in triplicates.
Where [29] appears, read: HEK293, SRE-luc, 6 h, mean ± SEM, 3 to 7 experiments in triplicates.

`CSCC[C@H](NC(=O)[C@H](CCCNC(=N)N)NC(=O)[C@H](Cc1ccc(O)cc1)NC(=O)[C@@H]1CCCN1C(=O)CNC(=O)[C@H](CCC(=O)O)NC(=O)[C@H](CC(=O)O)NC(=O)[C@H](CCCCN)NC(=O)[C@H](CCCCN)NC(=O)[C@H](CCC(=O)O)NC(=O)[C@H](C)N)C(=O)N[C@@H](CCC(=O)O)C(=O)N[C@@H](Cc1c[nH]cn1)C(=O)N[C@@H](Cc1ccccc1)C(=O)N[C@@H](CCCNC(=N)N)C(=O)N[C@@H](Cc1c[nH]c2ccccc12)C(=O)NCC(=O)N[C@@H](CO)C(=O)N1CCC[C@H]1C(=O)N1CCC[C@H]1C(=O)N[C@@H](CCCCN)C(=O)N[C@@H](CC(=O)O)C(=O)O` [β-MSH, β-melanocyte stimulating hormone]: the Emax in experiment [1] is reported as 10.05 fold over WT basal; in [3] (setting [25]), 10.40 fold over WT basal; in experiment [4] (setting [26]) it was 8.69 fold over WT basal; in experiment [5] (setting [25]), 14.65 fold over WT basal; in experiment [6], 4.94 fold over WT basal; in experiment [7] (setting [27]), 38.55 fold over WT basal. Moreover, the Emax was determined as 6.58 fold over WT basal in experiment [8]; 2.18 fold over WT basal in experiment [9] (setting [28]); 2.29 fold over WT basal in experiment [10] (setting [28]); 2.40 fold over WT basal in experiment [11]; 1.93 fold over WT basal in experiment [12]; 14.85 fold over WT basal in experiment [13] (setting [26]). Moreover, the Emax was 16.65 fold over WT basal in [14] (setting [27]); 26.86 fold over WT basal in experiment [15]; 5.55 fold over WT basal in experiment [16] (setting [29]); 1.35 fold over WT basal in experiment [18]; 5.14 fold over WT basal in experiment [19] (setting [29]). Also, the “GS signaling in the presence of 100 nM AgRP” value in [2] was “not as strongly affected compared to the one of α-MSH”. The “Gq/11 (PLC) activation compared to WT” value in experiment [3] was “increased GS and Gq/11 signaling”; in [5], “increased Gq/11 coupling”. Also, the “GS signaling compared to WT” value in experiment [4] was “reduced (though not significantly); also recorded: tendency towards low GS signaling”; in [13], “increased GS and Gq/11 signaling”. Further, the “Gi/o coupling compared to WT” value in [7] is on record as “strong bias towards Gi/o signaling”; in experiment [14] it was “strong positive bias towards Gi/o coupling”. The “G12/13 (RhoA) activation compared to WT” value was “WT-like activity in G12/13 and β-arrestin2 recruitment” in experiment [9]; “strong positive bias towards Gi/o coupling, RhoA activation via G12/13” in experiment [10]. The “ERK phosphorylation compared to WT” value was “augmented ERK phosphorylation” in experiment [16] and “tendency towards an ERK signaling bias, which was not significant” in [19]. In experiment [17], the “β-arrestin2 recruitment compared to WT” value is “WT-like activity in G12/13 and β-arrestin2 recruitment”.

For the compound “Agouti-related peptide (SSRRCVRLHESCLGQQVPCCDPCATCYCRFFNAFCYCRKLGTAMNPCSRT; UniProt O00253 83-132, looked up) [AgRP, purchased from Phoenix Pharmaceuticals]”, the “antagonistic effect of AgRP” value in experiment [20] (agonist α-MSH) is “loss-of-antagonist effect”; in experiment [20] (agonist β-MSH), “loses its antagonistic effect for this mutation”; in [23], “tendency towards a reduced antagonist effect of AgRP, which was, however, not significant; also recorded: tendency towards a decreased antagonistic effect”. Also, the “effect of AgRP on GS signaling” value in experiment [21] was “decreased GS signaling for all tested MC4R mutations and ligands”. For the same compound, the “AgRP antagonistic potency” value in experiment [22] is “modestly reduced AgRP antagonistic potency”. The “mode of action at MC4R” value in [24] (ref 15, 17) is “inverse agonist”; in [24] (ref 15, 18), “competitive antagonist”.
